pIC50: −log10 of the molar value.

As usually defined, the pIC50 is the IC50 on a negative log10 scale, so that one unit is a factor of ten. Read a low pIC50 as a high IC50.

In this assay the target is LSD-1 enzyme (Homo sapiens (Human), UniProt O60341). The assay can be described thus: LANCE LSD1/KDM1A demethylase assay (LSD1 histone demethylase biochemical assay). The note with it: 1 nM LSD-1 enzyme, 1 hour preincubation at 25° C., 0.4 μM Biotin-labeled Histone H3 peptide substrate. In general terms: In TR-FRET formats the signal depends on donor and acceptor labels being close together.
`CCOc1ccc(-c2c(-c3ccc(C#N)cc3)nc(N3CCC(N(C)C)CC3)c3cncn23)cn1` [Example 99, 4-[8-[4-(dimethylamino)piperidin-1-yl]-5-(6-ethoxypyridin-3-yl)imidazo[1,5-a]pyrazin-6-yl]benzonitrile]: the pIC50 is no less than 7.30.

Turning to `CN(C)C1CCN(c2nc(-c3ccc(C#N)cc3)c(-c3ccc4c(cnn4C)c3)n3cncc23)CC1` [Example 100, 4-[8-[4-(dimethylamino)piperidin-1-yl]-5-(1-methyl-1H-indazol-5-yl)imidazo[1,5-a]pyrazin-6-yl]benzonitrile], the pIC50 was no less than 7.30.

`CN1CCC[C@@H](COc2nc(-c3ccc(C#N)cc3)c(-c3ccc4c(c3)CC(O)C4)n3cncc23)C1` (stereo partly drawn) [Example 101, 4-(5-(2-hydroxy-2,3-dihydro-1H-inden-5-yl)-8-{[(3R)-1-methylpiperidin-3-yl]methoxy}imidazo[1,5-a]pyrazin-6-yl)benzonitrile] showed a pIC50 of no less than 7.30.

The molecule `CN1CCC[C@@H](COc2nc(-c3ccc(C#N)c(F)c3)c(-c3ccc4c(c3)CCC(=O)N4C)n3cncc23)C1` [Example 102, 2-fluoro-4-(5-(1-methyl-2-oxo-1,2,3,4-tetrahydroquinolin-6-yl)-8-{[(3R)-1-methylpiperidin-3-yl]methoxy}imidazo[1,5-a]pyrazin-6-yl)benzonitrile] gave a negative-log IC50 (pIC50) of no less than 7.30.

In turn, `CN(C)C1CCN(c2nc(-c3ccc(C#N)cc3)c(-c3ccc4nccnc4c3)n3cncc23)CC1` [Example 103, 4-(8-(4-(dimethylamino)piperidin-1-yl)-5-(quinoxalin-6-yl)imidazo[1,5-a]pyrazin-6-yl)benzonitrile] had a pIC50 of no less than 7.30.

`CN1C(=O)COc2cc(-c3c(-c4ccc(C#N)cc4)nc(N4CCC(N(C)C)CC4)c4cncn34)cnc21` [Example 105, 4-[8-[4-(dimethylamino)piperidin-1-yl]-5-(4-methyl-3-oxo-3,4-dihydro-2H-pyrido[3,2-b][1,4]oxazin-7-yl)imidazo[1,5-a]pyrazin-6-yl]benzonitrile] gave a pIC50 of no less than 7.30.

`CN1C(=O)OCc2cc(-c3c(-c4ccc(C#N)cc4)nc(N4CCC(N(C)C)CC4)c4cncn34)ccc21` [Example 106, 4-[8-[4-(dimethylamino)piperidin-1-yl]-5-(1-methyl-2-oxo-1,4-dihydro-2H-3,1-benzoxazin-6-yl)imidazo[1,5-a]pyrazin-6-yl]benzonitrile] gave a pIC50 of no less than 7.30.

Consider `CN(C)C1CCN(c2nc(-c3ccc(C#N)cc3)c(-c3cnc4c(c3)ncn4C)n3cncc23)CC1` [Example 107, 4-[8-[4-(dimethylamino)piperidin-1-yl]-5-(3-methyl-3H-imidazo[4,5-b]pyridin-6-yl)imidazo[1,5-a]pyrazin-6-yl]benzonitrile], for which the pIC50 is no less than 7.30.

In the case of `CCn1c(=O)oc2cc(-c3c(-c4ccc(C#N)cc4)nc(N4CCC(N(C)C)CC4)c4cncn34)ccc21` [Example 108, 4-[8-[4-(dimethylamino)piperidin-1-yl]-5-(3-ethyl-2-oxo-2,3-dihydro-1,3-benzoxazol-6-yl)imidazo[1,5-a]pyrazin-6-yl]benzonitrile], the pIC50 was no less than 7.30.

Turning to `CN(C)C1CCN(c2nc(-c3ccc(C#N)cc3)c(-c3ccc4c(c3F)n(C)c(=O)n4C)n3cncc23)CC1` [Example 109, 4-[8-[4-(dimethylamino)piperidin-1-yl]-5-(4-fluoro-1,3-dimethyl-2-oxo-2,3-dihydro-1H-benzimidazol-5-yl)imidazo[1,5-a]pyrazin-6-yl]benzonitrile], the pIC50 is no less than 7.30.

As to `CCN1CCC[C@@H](COc2nc(-c3ccc(C#N)cc3)c(-c3cc4oc(=O)n(C)c4cc3F)n3cncc23)C1` [Example 111, 4-[8-{[(3R)-1-ethylpiperidin-3-yl]methoxy}-5-(5-fluoro-3-methyl-2-oxo-2,3-dihydro-1,3-benzoxazol-6-yl)imidazo[1,5-a]pyrazin-6-yl]benzonitrile], the pIC50 was no less than 7.30.

For the molecule `CN(C)[C@H]1CCN(c2nc(-c3ccc(C#N)cc3)c(-c3cc4oc(=O)n(C)c4cc3F)n3cncc23)C1` [Example 113, 4-[8-[(3S)-3-(dimethylamino)pyrrolidin-1-yl]-5-(5-fluoro-3-methyl-2-oxo-2,3-dihydro-1,3-benzoxazol-6-yl)imidazo[1,5-a]pyrazin-6-yl]benzonitrile], the negative-log IC50 (pIC50) was no less than 7.30.

On to `CCN1CCC[C@@H](COc2cc(-c3ccc(C#N)cc3)c(-c3ccc4c(c3)CC(=O)N4C)n3cncc23)C1` [Example 114, (R)-4-(8-((1-ethylpiperidin-3-yl)methoxy)-5-(1-methyl-2-oxoindolin-5-yl)imidazo[1,5-a]pyridin-6-yl)benzonitrile], for which the pIC50 was no less than 7.30.

Consider `COCCN1CCC[C@@H](COc2cc(-c3ccc(C#N)cc3)c(-c3cnc4c(c3)OCCO4)n3cncc23)C1` [Example 115, (R)-4-(5-(2,3-dihydro-[1,4]dioxino[2,3-b]pyridin-7-yl)-8-((1-(2-methoxyethyl)piperidin-3-yl)methoxy)imidazo[1,5-a]pyridin-6-yl)benzonitrile], for which the pIC50 is no less than 7.30.

`CN1CCC[C@@H](COc2cc(-c3ccc(C#N)cc3)c(-c3cnc4c(c3)OCCN4C)n3cncc23)C1` [Example 116, (R)-4-(5-(4-methyl-3,4-dihydro-2H-pyrido[3,2-b][1,4]oxazin-7-yl)-8-((1-methylpiperidin-3-yl)methoxy)imidazo[1,5-a]pyridin-6-yl)benzonitrile] had a negative logarithm of the IC50 (pIC50) of no less than 7.30.

The molecule `CC(O)CN1CCC[C@@H](COc2cc(-c3ccc(C#N)cc3)c(-c3ccc4nccnc4c3)n3cncc23)C1` (stereo partly drawn) [Example 120, 4-(8-(((3R)-1-(2-hydroxypropyl)piperidin-3-yl)methoxy)-5-(quinoxalin-6-yl)imidazo[1,5-a]pyridin-6-yl)benzonitrile] showed a pIC50 of no less than 7.30.

`COCCN1CCC[C@@H](COc2cc(-c3ccc(C#N)cc3)c(-c3cnc4ccoc4c3)n3cncc23)C1` [Example 121, 4-(5-furo[3,2-b]pyridin-6-yl-8-{[(3R)-1-(2-methoxyethyl)piperidin-3-yl]methoxy}imidazo[1,5-a]pyridin-6-yl)benzonitrile] gave a pIC50 of no less than 7.30.

The molecule `COCCN1CCC[C@@H](COc2cc(-c3ccc(C#N)cc3)c(-c3cnc4c(c3)CCCO4)n3cncc23)C1` [Example 122, (R)-4-(5-(3,4-dihydro-2H-pyrano[2,3-b]pyridin-6-yl)-8-((1-(2-methoxyethyl)piperidin-3-yl)methoxy)imidazo[1,5-a]pyridin-6-yl)benzonitrile] gave a negative-log IC50 (pIC50) of no less than 7.30.

In the case of `CC(O)c1ccc(-c2c(-c3ccc(C#N)cc3)cc(OC[C@@H]3CCCN(C)C3)c3cncn23)cc1` (stereo partly drawn) [Example 123, 4-(5-[4-(1-hydroxyethyl)phenyl]-8-{[(3R)-1-methylpiperidin-3-yl]methoxy}imidazo[1,5-a]pyridin-6-yl)benzonitrile], the pIC50 is no less than 7.30.

As for `Cc1ccc(-c2c(-c3ccc(C#N)cc3)cc(OC[C@@H]3CCCN(C)C3)c3cncn23)cn1` [Example 125, 4-[8-{[(3R)-1-methylpiperidin-3-yl]methoxy}-5-(6-methylpyridin-3-yl)imidazo[1,5-a]pyridin-6-yl]benzonitrile], the pIC50 was no less than 7.30.

The molecule `Cc1cc(-c2c(-c3ccc(C#N)cc3)cc(OC[C@@H]3CCCN(C)C3)c3cncn23)cc(F)c1C(C)O` (stereo partly drawn) [Example 126, 4-(5-[3-fluoro-4-(1-hydroxyethyl)-5-methylphenyl]-8-{[(3R)-1-methylpiperidin-3-yl]methoxy}imidazo[1,5-a]pyridin-6-yl)benzonitrile] gave a negative-log IC50 (pIC50) of no less than 7.30.

Source of the values: patent US10047086B2, “Imidazopyridines and imidazopyrazines as LSD1 inhibitors” (Incyte Corporation, priority 2014, dated 2018).
